Key:
3T3-L1 adipocytes = test: Lipid accumulation and gene expression in 3T3-L1 adipocytes; assay type: cell-based, mouse; conditions: 24-h; elafin 10 ng/ml, miRNA mimics 75 ng/ml
Text: FIG. 34. Immune cell-derived miR181b-5p and miR219-5p induced leptin mRNA expression in 3T3-L1 adipocytes. (A) Mouse serum exosomal miRNA expression was profiled by a PCR array. miR219-5p, miR210-3p, and miR181-5p were undetectable in the serum exosomes of HFD-treated mice without elafin overexpression. These three miRNAs were detected in the serum exosomes of elafin-overexpressing HFD-treated mice only. Each group consists of 6 mice. […] (C) The positive correlation between serum elafin levels and miRNAs (miR181b-5p and miR210-3p, but not miR219-5p) in the men with T2DM. […]
Cell culture experiments. […] Adipocyte lipid accumulation was determined using Oil Red O staining, as described previously.
Quantitative real-time reverse transcription-polymerase chain reaction (RT-PCR) and miRNA PCR array. […] Quantitative PCR reactions were run with Fast Universal PCR master mix (#4352042, ThermoFisher) in a Bio-Rad CFX384 using cataloged primers (ThermoFisher) for human elafin (Hs00160066_m1), human leptin (Hs00174877_m1), mouse Cd36 (Mm00432403_m1), mouse adiponectin (Mm00456425_m1), mouse leptin (Mm00434759_m1), and mouse Tnf (Mm00443258_m1). Relative mRNA quantification was performed by comparing test groups and control group, after normalization with endogenous control gene human 18S (Hs99999901_s1) or mouse Gapdh (Mm99999915_g1).

Salmonella-infected mice = test: Salmonella-mediated cecal fibrosis in mice; assay type: in vivo; conditions: Salmonella model
Procedure: Eight-week-old male and female 129Sv/J mice (#000691, Jackson Laboratories) were administered 20 mg streptomycin via oral gavage. Twenty-four hours later, the mice were orally infected with Salmonella typhimurium SL1344 strain 1×10^8 colony-forming units by oral gavage to induce cecal fibrosis.
Origene or miR205-5p-OFF lentivrus (mm35328) or miR205-5p-OE lentivirus (mm15214) from Applied Biological Materials on day 14. Some infected mice received oral antibiotics mixture in drinking water ad libitum from day 14 to day 21 to suppress intestinal microbiota. […]
H&E and Masson Trichrome (MT) staining were performed as described previously. Microphotographs were recorded at multiple locations and scored by two investigators blindly. Intestinal injuries were scored (0-12). The severity of intestinal fibrosis was assessed by MT staining and scored (0-3). […]
Total RNA was isolated by an RNeasy kit (#74104, Qiagen) and reverse transcribed into cDNA by a high-capacity cDNA reverse transcription kit (#4368813, ThermoFisher). […] Relative mRNA/miRNA quantification was performed by comparing test groups and control groups after normalization with endogenous control genes. The fold changes are expressed as 2^ΔΔCt. […]
Overall disease activity (ODA) was calculated by % change of histology and fibrosis scores and colonic mRNA expression of fibrosis- and inflammation-related genes. […]

For “Elafin: small (6 kDa) human elastase-specific protease inhibitor and antimicrobial peptide; active form SEQ ID NO: 2 (AQEPVKGPVSTKPGSCPIILIRCAMLNPPNRCLKDTDCPGIKKCCEGSCGMACFVPQ; listed as Homo sapiens)”, the “lipid accumulation; Cd36 and adiponectin mRNA expression” value (3T3-L1 adipocytes) was “affected neither” and the overall disease activity (Salmonella-infected mice) was 29%.
